Measured values taken from paper PMC5218480 (PLoS ONE, 2017).

Tested on: MV-4-11 cells
Assay: Gene expression microarray analysis (Affymetrix PrimeView) and GSEA
Assay type: cell-based, human
Design: RFU PODN (11730768_x_at) / Fold change /veh PODN (11730768_x_at) / RFU LINC00158 (11744669_a_at) / Fold change /veh LINC00158 (11744669_a_at) / RFU DUSP10 (11751237_a_at) / Fold change /veh DUSP10 (11751237_a_at) / RFU ID3 (11757404_x_at) / Fold change /veh ID3 (11757404_x_at) / RFU PLEKHG5 (11737974_s_at) / Fold change /veh PLEKHG5 (11737974_s_at) / RFU LRRC4B (11730491_at) / Fold change /veh LRRC4B (11730491_at) / RFU GIMAP4 (11747438_a_at) / Fold change /veh GIMAP4 (11747438_a_at) / RFU KRT8 (11758183_x_at) / Fold change /veh KRT8 (11758183_x_at) / RFU CNN1 (11734310_a_at) / Fold change /veh CNN1 (11734310_a_at) / RFU VPS37D (11726825_at) / Fold change /veh VPS37D (11726825_at) / RFU C10orf10 (11716522_x_at) / Fold change /veh C10orf10 (11716522_x_at) / RFU KIR2DL2 /// KIR2DL4 /// KIR2DL5A /// KIR2DL5B /// KIR2DS1 /// KIR2DS2 /// KIR2DS3 /// KIR2DS4 /// KIR3DL3 /// KIR3DL3 /// KIR3DS1 (11738374_at) / Fold change /veh KIR2DL2 /// KIR2DL4 /// KIR2DL5A /// KIR2DL5B /// KIR2DS1 /// KIR2DS2 /// KIR2DS3 /// KIR2DS4 /// KIR3DL3 /// KIR3DL3 /// KIR3DS1 (11738374_at) / RFU C1QL1 (11718748_at) / Fold change /veh C1QL1 (11718748_at) / RFU TMPRSS4 (11747572_a_at) / Fold change /veh TMPRSS4 (11747572_a_at) / RFU HAMP (11756126_x_at) / Fold change /veh HAMP (11756126_x_at) / RFU RNFT2 (11725882_a_at) / Fold change /veh RNFT2 (11725882_a_at) / RFU NR4A2 (11747474_a_at) / Fold change /veh NR4A2 (11747474_a_at) / RFU ABCC12 (11746883_a_at) / Fold change /veh ABCC12 (11746883_a_at) / RFU TMEM136 (11760407_x_at) / Fold change /veh TMEM136 (11760407_x_at) / RFU CLDN22 /// WWC2 (11732394_at) / Fold change /veh CLDN22 /// WWC2 (11732394_at) / RFU HLA-DPB1 (11760878_x_at) / Fold change /veh HLA-DPB1 (11760878_x_at) / RFU SPINT1 (11716480_a_at) / Fold change /veh SPINT1 (11716480_a_at) / RFU GAP43 (11754022_s_at) / Fold change /veh GAP43 (11754022_s_at) / RFU A4GNT (11735810_at) / Fold change /veh A4GNT (11735810_at) / RFU PRB3 (11715151_x_at) / Fold change /veh PRB3 (11715151_x_at) / RFU TUBB4B (11761932_at) / Fold change /veh TUBB4B (11761932_at) / RFU CAPN14 (11732068_a_at) / Fold change /veh CAPN14 (11732068_a_at) / RFU TMCC2 (11721928_a_at) / Fold change /veh TMCC2 (11721928_a_at) / RFU IRGQ (11745062_a_at) / Fold change /veh IRGQ (11745062_a_at) / RFU FAM174B (11720279_a_at) / Fold change /veh FAM174B (11720279_a_at) / RFU TMPRSS4 (11748680_a_at) / Fold change /veh TMPRSS4 (11748680_a_at) / RFU FAM212B (11763350_a_at) / Fold change /veh FAM212B (11763350_a_at) / RFU PLEKHG5 (11743358_a_at) / Fold change /veh PLEKHG5 (11743358_a_at) / RFU ZSCAN30 (11745921_a_at) / Fold change /veh ZSCAN30 (11745921_a_at) / RFU CMKLR1 (11741424_a_at) / Fold change /veh CMKLR1 (11741424_a_at) / RFU LOC101060620 /// MAPK8IP1 (11723275_at) / Fold change /veh LOC101060620 /// MAPK8IP1 (11723275_at) / RFU SPTSSB (11747773_x_at) / Fold change /veh SPTSSB (11747773_x_at) / RFU PRSS12 (11739890_at) / Fold change /veh PRSS12 (11739890_at) / RFU BIN1 (11741810_x_at) / Fold change /veh BIN1 (11741810_x_at) / RFU WNT11 (11732464_a_at) / Fold change /veh WNT11 (11732464_a_at) / RFU C10orf10 (11716521_a_at) / Fold change /veh C10orf10 (11716521_a_at) / RFU C5orf56 (11738089_at) / Fold change /veh C5orf56 (11738089_at) / RFU CYB561 (11721691_x_at) / Fold change /veh CYB561 (11721691_x_at) / RFU ANKRD19P (11752326_a_at) / Fold change /veh ANKRD19P (11752326_a_at) / RFU OR2T12 /// OR2T33 /// OR2T8 (11738714_s_at) / Fold change /veh OR2T12 /// OR2T33 /// OR2T8 (11738714_s_at) / RFU VCAN (11748164_a_at) / Fold change /veh VCAN (11748164_a_at) / RFU JSRP1 (11732532_at) / Fold change /veh JSRP1 (11732532_at) / RFU KRTAP10-11 (11738290_x_at) / Fold change /veh KRTAP10-11 (11738290_x_at) / RFU MYO3A (11730013_a_at) / Fold change /veh MYO3A (11730013_a_at) / RFU EBF3 (11725865_a_at) / Fold change /veh EBF3 (11725865_a_at) / RFU CAMK2N1 (11719241_x_at) / Fold change /veh CAMK2N1 (11719241_x_at) / RFU C5orf56 (11738088_a_at) / Fold change /veh C5orf56 (11738088_a_at) / RFU OLFML3 (11715873_a_at) / Fold change /veh OLFML3 (11715873_a_at) / RFU LOC100653217 /// NTM (11731650_a_at) / Fold change /veh LOC100653217 /// NTM (11731650_a_at) / RFU MAPK11 (11762145_a_at) / Fold change /veh MAPK11 (11762145_a_at) / RFU FIZ1 (11724087_x_at) / Fold change /veh FIZ1 (11724087_x_at) / RFU OASL (11726364_x_at) / Fold change /veh OASL (11726364_x_at) / RFU SOX15 (11748057_x_at) / Fold change /veh SOX15 (11748057_x_at) / RFU CD79A (11719716_a_at) / Fold change /veh CD79A (11719716_a_at) / RFU HIST1H1D (11736915_at) / Fold change /veh HIST1H1D (11736915_at) / RFU CASKIN2 (11723855_a_at) / Fold change /veh CASKIN2 (11723855_a_at) / RFU LOC730098 (11760151_x_at) / Fold change /veh LOC730098 (11760151_x_at) / RFU OR4N2 (11742367_at) / Fold change /veh OR4N2 (11742367_at) / RFU PRRT2 (11749266_a_at) / Fold change /veh PRRT2 (11749266_a_at) / RFU SNX32 (11753110_a_at) / Fold change /veh SNX32 (11753110_a_at) / RFU CDHR5 (11726645_a_at) / Fold change /veh CDHR5 (11726645_a_at) / RFU RCAN1 (11760418_a_at) / Fold change /veh RCAN1 (11760418_a_at) / RFU FAM167A (11723789_a_at) / Fold change /veh FAM167A (11723789_a_at) / RFU FAM26E (11764081_at) / Fold change /veh FAM26E (11764081_at) / RFU ISYNA1 (11749810_s_at) / Fold change /veh ISYNA1 (11749810_s_at) / RFU ACY1 (11761880_at) / Fold change /veh ACY1 (11761880_at) / RFU 11764098_at / Fold change /veh 11764098_at / RFU SAMD14 (11745864_x_at) / Fold change /veh SAMD14 (11745864_x_at) / RFU NPB (11741838_a_at) / Fold change /veh NPB (11741838_a_at) / RFU TMPRSS6 (11731388_a_at) / Fold change /veh TMPRSS6 (11731388_a_at) / RFU KRTAP10-2 (11738614_at) / Fold change /veh KRTAP10-2 (11738614_at) / RFU ARHGAP8 /// PRR5-ARHGAP8 (11727945_x_at) / Fold change /veh ARHGAP8 /// PRR5-ARHGAP8 (11727945_x_at) / RFU KRTAP5-7 /// NADSYN1 (11734609_at) / Fold change /veh KRTAP5-7 /// NADSYN1 (11734609_at) / RFU RASL12 (11751679_a_at) / Fold change /veh RASL12 (11751679_a_at) / RFU CDKN2B (11736163_a_at) / Fold change /veh CDKN2B (11736163_a_at) / RFU PRF1 (11729649_at) / Fold change /veh PRF1 (11729649_at) / RFU, ZNF638 /// ZNF638-IT1 / Fold change vs veh, ZNF638 /// ZNF638-IT1 / RFU, PANK3 / Fold change vs veh, PANK3 / RFU, SH3YL1 / Fold change vs veh, SH3YL1 / RFU, ZEB2 / Fold change vs veh, ZEB2 / RFU, NRIP1 / Fold change vs veh, NRIP1 / RFU, PTTG1IP / Fold change vs veh, PTTG1IP / RFU, CAPN2 / Fold change vs veh, CAPN2 / RFU, MED14 / Fold change vs veh, MED14 / RFU, SNORA58 / Fold change vs veh, SNORA58 / RFU, C1orf63 / Fold change vs veh, C1orf63 / RFU, LRRFIP1 / Fold change vs veh, LRRFIP1 / RFU, NDUFAF7 / Fold change vs veh, NDUFAF7 / RFU, SLC12A2 / Fold change vs veh, SLC12A2 / RFU, IBTK / Fold change vs veh, IBTK / RFU, ESF1 / Fold change vs veh, ESF1 / Fold change vs veh, TMEM50B / RFU, TAOK1 / Fold change vs veh, TAOK1 / RFU, ACBD3 / Fold change vs veh, ACBD3 / RFU, TMA16 / Fold change vs veh, TMA16 / RFU, RWDD3 / Fold change vs veh, RWDD3 / RFU, BCAT1 / Fold change vs veh, BCAT1 / RFU, EDEM3 / Fold change vs veh, EDEM3 / RFU, TMEM33 / Fold change vs veh, TMEM33 / RFU, WDR75 / Fold change vs veh, WDR75 / RFU, AHCTF1 / Fold change vs veh, AHCTF1 / RFU, TFRC / Fold change vs veh, TFRC / RFU, ZDHHC17 / Fold change vs veh, ZDHHC17 / RFU, NOM1 / Fold change vs veh, NOM1 / RFU, ARL8B / Fold change vs veh, ARL8B / RFU, ZBTB11 / Fold change vs veh, ZBTB11 / RFU, TAMM41 / Fold change vs veh, TAMM41 / RFU, KIAA1704 /// LOC100996395 / Fold change vs veh, KIAA1704 /// LOC100996395 / RFU, ING1 / Fold change vs veh, ING1 / RFU, TRMT61B / Fold change vs veh, TRMT61B / RFU, FUBP3 / Fold change vs veh, FUBP3 / RFU, TP53 / Fold change vs veh, TP53 / RFU, TNKS2 / Fold change vs veh, TNKS2 / RFU, ZFP14 / Fold change vs veh, ZFP14 / RFU, ACTR2 / Fold change vs veh, ACTR2 / RFU, PPP3R1 / Fold change vs veh, PPP3R1 / RFU, PIK3R1 / Fold change vs veh, PIK3R1 / RFU, HNRNPA1 / Fold change vs veh, HNRNPA1 / RFU, RNF170 / Fold change vs veh, RNF170 / RFU, ZNF28 / Fold change vs veh, ZNF28 / RFU, RNGTT / Fold change vs veh, RNGTT / RFU, OGT / Fold change vs veh, OGT / RFU, BRD1 / Fold change vs veh, BRD1 / RFU, MARS / Fold change vs veh, MARS / RFU, ZNF655 / Fold change vs veh, ZNF655 / RFU, FAHD1 / Fold change vs veh, FAHD1 / RFU, BDP1 / Fold change vs veh, BDP1 / RFU, LRRCC1 / Fold change vs veh, LRRCC1 / RFU, ARID1A / Fold change vs veh, ARID1A / RFU, ZNF146 / Fold change vs veh, ZNF146 / RFU, ZNF330 / Fold change vs veh, ZNF330 / RFU, GPN3 / Fold change vs veh, GPN3 / RFU, C9orf123 / Fold change vs veh, C9orf123 / RFU, N4BP2L2 / Fold change vs veh, N4BP2L2 / RFU, ARFIP1 / Fold change vs veh, ARFIP1 / RFU, FAM179B / Fold change vs veh, FAM179B / RFU, BCL10 / Fold change vs veh, BCL10 / RFU, UHRF1BP1L / Fold change vs veh, UHRF1BP1L / RFU, BET1 / Fold change vs veh, BET1 / RFU, CNOT2 / Fold change vs veh, CNOT2 / RFU, ZNF268 / Fold change vs veh, ZNF268 / Fold change vs veh, ZNF507 / RFU, DGCR2 / Fold change vs veh, DGCR2 / RFU, WDSUB1 / Fold change vs veh, WDSUB1 / Fold change vs veh, HSP90B1 /// MIR3652 / RFU, ADSS / Fold change vs veh, ADSS / RFU, GK / Fold change vs veh, GK / RFU, ZNF148 / Fold change vs veh, ZNF148 / RFU, TAF9 / Fold change vs veh, TAF9 / RFU, SLC1A5 / Fold change vs veh, SLC1A5 / RFU, SLMO2 / Fold change vs veh, SLMO2 / RFU, ABCC4 / Fold change vs veh, ABCC4 / RFU, LOC101060439 /// RAP1B / Fold change vs veh, LOC101060439 /// RAP1B / RFU, RFX7 / Fold change vs veh, RFX7 / RFU, GTPBP10 / Fold change vs veh, GTPBP10 / RFU, CNEP1R1 / Fold change vs veh, CNEP1R1 / RFU, BIVM-ERCC5 /// ERCC5 / Fold change vs veh, BIVM-ERCC5 /// ERCC5 / RFU, ILF3 / Fold change vs veh, ILF3 / RFU 11762660_at / Fold change /veh 11762660_at / RFU VCAN (11757783_s_at) / Fold change /veh VCAN (11757783_s_at) / RFU DDX43 (11728927_at) / Fold change /veh DDX43 (11728927_at) / RFU KRT8 (11758188_x_at) / Fold change /veh KRT8 (11758188_x_at) / RFU NKD1 (11759106_at) / Fold change /veh NKD1 (11759106_at) / RFU SRD5A1 (11742802_a_at) / Fold change /veh SRD5A1 (11742802_a_at) / RFU TPSAB1 /// TPSB2 (11721975_s_at) / Fold change /veh TPSAB1 /// TPSB2 (11721975_s_at) / RFU GSTM3 (11746129_a_at) / Fold change /veh GSTM3 (11746129_a_at) / RFU IL23R (11737362_x_at) / Fold change /veh IL23R (11737362_x_at) / RFU TMEM51 (11727254_a_at) / Fold change /veh TMEM51 (11727254_a_at) / RFU PIWIL2 (11732686_x_at) / Fold change /veh PIWIL2 (11732686_x_at) / RFU ORM1 (11744905_x_at) / Fold change /veh ORM1 (11744905_x_at) / RFU CCDC152 (11743942_at) / Fold change /veh CCDC152 (11743942_at) / RFU ECM1 (11717891_a_at) / Fold change /veh ECM1 (11717891_a_at) / RFU IL23R (11748794_a_at) / Fold change /veh IL23R (11748794_a_at) / RFU TNFAIP8L3 (11732012_x_at) / Fold change /veh TNFAIP8L3 (11732012_x_at) / RFU MBOAT4 (11741988_at) / Fold change /veh MBOAT4 (11741988_at) / RFU 11764193_at / Fold change /veh 11764193_at / RFU TMEM53 (11763286_at) / Fold change /veh TMEM53 (11763286_at) / RFU MAGEB2 (11727129_at) / Fold change /veh MAGEB2 (11727129_at) / RFU TMEM200A (11744735_a_at) / Fold change /veh TMEM200A (11744735_a_at) / RFU CCDC152 (11751479_a_at) / Fold change /veh CCDC152 (11751479_a_at) / RFU FAM211A (11726209_a_at) / Fold change /veh FAM211A (11726209_a_at) / RFU RGS16 (11746705_a_at) / Fold change /veh RGS16 (11746705_a_at) / RFU VCAN (11755009_s_at) / Fold change /veh VCAN (11755009_s_at) / RFU RHOB (11743442_s_at) / Fold change /veh RHOB (11743442_s_at) / RFU RGS16 (11720943_a_at) / Fold change /veh RGS16 (11720943_a_at) / RFU RGS16 (11720944_at) / Fold change /veh RGS16 (11720944_at) / RFU, VPS4B / Fold change vs veh, VPS4B / RFU, CREB1 / Fold change vs veh, CREB1 / RFU, DNAJC13 / Fold change vs veh, DNAJC13 / RFU, GNAQ / Fold change vs veh, GNAQ / RFU, CDK5R1 / Fold change vs veh, CDK5R1 / RFU, ZRANB3 / Fold change vs veh, ZRANB3 / RFU, CUL4A / Fold change vs veh, CUL4A / RFU, CCNY / Fold change vs veh, CCNY / RFU, UFL1 / Fold change vs veh, UFL1 / RFU, COG3 / Fold change vs veh, COG3 / RFU, DIAPH2 / Fold change vs veh, DIAPH2 / RFU, SKA2 / Fold change vs veh, SKA2 / RFU, AFF3 / Fold change vs veh, AFF3 / RFU, LMF1 / Fold change vs veh, LMF1 / RFU, IPO11 / Fold change vs veh, IPO11 / RFU, DFFB / Fold change vs veh, DFFB / RFU, FOXP1 / Fold change vs veh, FOXP1 / RFU, CARD8 / Fold change vs veh, CARD8 / RFU, STRN3 / Fold change vs veh, STRN3 / RFU, ADK / Fold change vs veh, ADK / RFU, RASSF2 / Fold change vs veh, RASSF2 / RFU, WIPF1 / Fold change vs veh, WIPF1 / RFU, LARP1B / Fold change vs veh, LARP1B / RFU, RASA1 / Fold change vs veh, RASA1 / RFU, RB1 / Fold change vs veh, RB1 / RFU, PPFIA1 / Fold change vs veh, PPFIA1 / RFU, MAT2A / Fold change vs veh, MAT2A / RFU, CCT5 / Fold change vs veh, CCT5 / RFU, WDR92 / Fold change vs veh, WDR92 / RFU, CUX1 / Fold change vs veh, CUX1 / RFU, TTC7A / Fold change vs veh, TTC7A / RFU, TMEM135 / Fold change vs veh, TMEM135 / RFU, DEPTOR / Fold change vs veh, DEPTOR / RFU, CPM / Fold change vs veh, CPM / RFU, DNAJB6 / Fold change vs veh, DNAJB6 / RFU, CACNA2D3 / Fold change vs veh, CACNA2D3 / RFU, DTX4 / Fold change vs veh, DTX4 / RFU, TFCP2 / Fold change vs veh, TFCP2 / RFU, GMCL1 /// GMCL1P1 / Fold change vs veh, GMCL1 /// GMCL1P1 / RFU, AEBP2 / Fold change vs veh, AEBP2 / RFU, SNHG1 /// SNORD22 /// SNORD25 /// SNORD26 /// SNORD27 /// SNORD28 /// SNORD29 /// SNORD31 / Fold change vs veh, SNHG1 /// SNORD22 /// SNORD25 /// SNORD26 /// SNORD27 /// SNORD28 /// SNORD29 /// SNORD31 / Fold change (Aza/veh), C12orf56 (ProbeSet 11735607_a_at) / Fold change (ACY-1035/veh), C12orf56 (ProbeSet 11735607_a_at) / Fold change (Aza/veh), FGFR1OP (ProbeSet 11751329_s_at) / Fold change (ACY-1035/veh), FGFR1OP (ProbeSet 11751329_s_at) / Fold change (Aza/veh), VPS36 (ProbeSet 11739960_a_at) / Fold change (ACY-1035/veh), VPS36 (ProbeSet 11739960_a_at) / RFU SYPL1 (11715823_x_at) / Fold change /veh SYPL1 (11715823_x_at) / RFU IGFBP7 (11715501_s_at) / Fold change /veh IGFBP7 (11715501_s_at) / RFU REEP3 (11722064_at) / Fold change /veh REEP3 (11722064_at) / RFU IGLL1 (11728026_x_at) / Fold change /veh IGLL1 (11728026_x_at): dose or concentration left out as unconfirmed
Conditions: MV-4-11 cells, 48 hours

## Nc1ncn([C@@H]2O[C@H](CO)[C@@H](O)[C@H]2O)c(=O)n1 [azacitidine]
  Fold change /veh TMEM51 (11727254_a_at): 1.21
